Experimental findings from patent US10570080B2, “Perfume ketones” (Givaudan, S.A., priority 2015, dated 2020) are described below.

Read-outs that look alike come from different tables or passages of the source.

The test system of one data set is KeratinoSens cells. Description: KeratinoSens assay: cytotoxicity / cellular viability. The following applies: 48 h.
The target in data set [1] is T1, test peptide Cor1C-420 (Ac-NKKCDLF) (Homo sapiens, UniProt Q9ULV4, I423F).
T1 construct: purchased Genscript Inc., Piscataway, N.J., USA
In words: Peptide reactivity assay for skin sensitization (similar to DPRA), LC-MS. The data set is classed as biochemical. The note with it: 37° C., 1 mM test chemical, 0.1 mM peptide. As to the method: A second method to determine allergenic potential of chemicals is the DPRA direct peptide assay (OECD TG 442c). It is based on the fact that allergenic chemicals must react with a peptide/protein in order to be immunogenic.
A peptide reactivity assay (A. Natsch, H. Gfeller, Toxicol. Sci 2008, 106, 464-478) was conducted similarly to the DPRA assay: The test chemicals were dissolved to a final concentration of 4 mM in acetonitrile and 250 μl of this solution were added to 2 ml HPLC vials. The test peptide Cor1C-420 with the sequence Ac-NKKCDLF (Genscript Inc., Piscataway, N.J., USA), was dissolved at 0.133 mM in 20 mM phosphate buffer at pH 7.5, and 750 μl of this solution were added to each test vial (final concentrations: 1 mM of test chemical and 0.1 mM of peptide in 25% acetonitrile; ratio 1:10 as in the DPRA assay). The samples were incubated for 1-24 h at 37° C. and at regular intervals they were analysed by LC-MS analysis on a VELOS PRO Mass spectrometer (Thermo […], San Jose, Calif., U.S.A.) operated in the ESl(+) mode. The temperature of the capillary was kept at 275° C. Mass spectra were recorded from 200-2000 amu. […]
Two endpoints are measured with this assay: • a) Depletion of the parent peptide. The mass of the protonated parent peptide is measured and the corresponding peak integrated (% depletion; FIG. 2). […]

The subject of data set [2] is Luciferase gene under the control of the ARE-element of the gene AKR1C2 (KeratinoSens cell line). In words: KeratinoSens assay for skin sensitization: luciferase gene induction. The following applies: for Concentration for 1.5-fold gene induction (EC 1.5 in μM): 48 h, n.i. = no induction above threshold of 1.5; for Imax (fold maximal gene induction): 48 h incubation, 0.98 to 2000 μM, vs DMSO controls.
Experimental: (§1) Sensitization is measured by the commercially-available and universally-accepted KeratinoSens™ test, which compares the potential skin sensitization risk of chemicals.
(§2) KeratinoSens cells were grown for 24 h in 96-well plates. The medium was then replaced with medium containing the test chemical and the solvent dimethylsulfoxide (DMSO) at a final level of 1%. Each compound was tested at 12 binary dilutions in the range from 0.98 to 2000 μM. Cells were incubated for 48 h with the test agents, and then luciferase activity and cytotoxicity were determined. This full procedure was repeated three times for each chemical. For each chemical in each repetition and at each concentration, the gene induction compared to DMSO controls and the wells with statistically significant induction over the threshold of 1.5 (i.e. 50% enhanced gene activity) were determined. Furthermore, the maximal fold-induction (Imax) and the EC1.5 value (concentration in μM for induction above the threshold) were calculated.
(§3) Compounds were tested using the commercial KeratinoSens™ assay for skin sensitization.

Data set [3] has the same test system.
Experimental: as §1, §2, §3

Experimental for KeratinoSens cells: KeratinoSens cells were grown for 24 h in 96-well plates. The medium was then replaced with medium containing the test chemical and the solvent dimethylsulfoxide (DMSO) at a final level of 1%. Each compound was tested at 12 binary dilutions in the range from 0.98 to 2000 μM. Cells were incubated for 48 h with the test agents, and then luciferase activity and cytotoxicity were determined. This full procedure was repeated three times for each chemical.
as §3

As for `C/C=C(\C)C(=O)[C@@H]1[C@@H](C)C=CCC1(C)C` (relative stereo) [Example 1, (2E,1′R*,2′S*)-2-Methyl-(2′,6′,6′-trimethylcyclohex-3′-en-1′-yl)but-2-en-1-one], in the data set with KeratinoSens cells, the “Concentration for 50% Cytotoxicity” value came out at 90.3 µM. In addition, the “levels of peptide adducts, fold lower as compared to Damascone delta” value in data set [1] (after 1 h) was 3200 fold. In data set [1] (over the 24 h experiment), the peptide depletion entry is listed as “no significant peptide depletion”. In addition, the “sensitization rating by the KeratinoSens assay” value in data set [2] is “non-sensitizing”. Besides, in data set [2] (KeratinoSens), the “induction of luciferase activity above the 1.5-fold threshold” value is given as “did not induce luciferase activity above the 1.5-fold threshold”, the “Concentration for 1.5-fold gene induction (EC 1.5 in μM)” value was “n.i” and the “Imax (fold maximal gene induction)” value stood at 1.09 fold.
Take `CC=C(C)C(=O)C1CCC=CC1C` (stereo not drawn) [Example 8, (2E,1′R*,2′R*)-2-Methyl-1-(2′-methylcyclohex-3′-en-1′-yl)but-2-en-1-one]: the “Concentration for 50% Cytotoxicity” value in the data set with KeratinoSens cells is 316.4 µM. In data set [2] (KeratinoSens), the “Concentration for 1.5-fold gene induction (EC 1.5 in μM)” value was “n.i” and the “Imax (fold maximal gene induction)” value is 1.35 fold.
As to `C/C=C/C(=O)C1C(C)C=CCC1(C)C` (stereo not shown) [Damascone delta™, (2E)-1-(2′,6′,6′-trimethylcyclohex-3′-en-1′-yl)but-2-en-1-one], in data set [3], the “concentration at which the luciferase gene is clearly induced” value was 4 µM, the “maximal gene induction over control” value stood at 8.7 fold and the “sensitization rating by the KeratinoSens assay” value is given as “significantly sensitizing compound”.
